Source: ChEMBL document CHEMBL1201862, “PubChem BioAssay data set” (2004)
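All cell lines were grown in 96-well plates and treated with compound for 48 hours. Abbreviation: GI50, concentration required for 50% inhibition of growth.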 Active and inactive are the calls of the source. No stated cut-off is given here; in the data, active = GI50 up to about 1.1 µM and inactive = higher.

What was measured:
Test in all cases: NCI-60 cell line screen, 48 h
ACHN = system: ACHN
TK-10 = system: TK-10
MDA-MB-435 = system: MDA-MB-435
UACC-257 = system: UACC-257
HCT-15 = system: HCT-15
MOLT-4 = system: MOLT-4
786-0 = system: 786-0
NCI/ADR-RES = system: NCI/ADR-RES
Hs-578T = system: Hs-578T
SK-MEL-2 = system: SK-MEL-2
UO-31 = system: UO-31
K562 = system: K562
CAKI-1 = system: CAKI-1
KM12 = system: KM12
SK-MEL-28 = system: SK-MEL-28
EKVX = system: EKVX
HL-60 = system: HL-60
DU-145 = system: DU-145
MDA-N = system: MDA-N
OVCAR-8 = system: OVCAR-8

SMILES | GI50 (ACHN) | GI50 (TK-10) | GI50 (MDA-MB-435) | GI50 (UACC-257) | GI50 (HCT-15) [µM] | GI50 (MOLT-4) | GI50 (786-0) | GI50 (NCI/ADR-RES) | GI50 (Hs-578T) | GI50 (SK-MEL-2) | GI50 (UO-31) | GI50 (K562) | GI50 (CAKI-1) | GI50 (KM12) | GI50 (SK-MEL-28) | GI50 (EKVX) | GI50 (HL-60) | GI50 (DU-145) | GI50 (MDA-N) | GI50 (OVCAR-8)
CCOC(=O)C(C)c1nc2ccc(C(F)(F)F)cc2[nH]c1=O (stereo not given) | > 100 µM (inactive) | 60.7 µM (inactive) | > 100 µM (inactive) | 58.7 µM (inactive) | 95.3 | 50.2 µM (inactive) | > 100 µM (inactive) | 37.4 µM (inactive) | 68.4 µM (inactive) | > 100 µM (inactive) | 36.2 µM (inactive) | 48.5 µM (inactive) | > 10 µM (inactive) | 71.9 µM (inactive) | > 100 µM (inactive) | 43.1 µM (inactive) | 44.8 µM (inactive) | 69.2 µM (inactive) | 64.1 µM (inactive) | 94.6 µM (inactive)
CN(Cc1cnc2nc(N)nc(N)c2n1)c1ccc(C(=O)NC(CCC(=O)O)C(=O)O)c2ccccc12 (stereo not given) | 0.00441 µM (active) | 0.0458 µM (active) | 0.00247 µM (active) | 0.0425 µM (active) | 0.00186 | 0.00545 µM (active) | 0.00303 µM (active) | 0.00395 µM (active) | 0.0982 µM (active) | < 0.1 µM (active) | 0.00638 µM (active) | 0.000301 µM (active) | 0.00489 µM (active) | 0.00256 µM (active) | 0.0805 µM (active) | < 0.1 µM (active) | 0.000435 µM (active) | 0.00938 µM (active) | 0.000834 µM (active) | 0.00378 µM (active)
C=CCc1c(Cl)nc(Cl)nc1Cl | 0.346 µM (active) | 1.08 µM (active) | 0.321 µM (active) | 0.641 µM (active) | 0.0873 | 0.0102 µM (active) | 0.0918 µM (active) | 0.853 µM (active) | 0.368 µM (active) | 0.478 µM (active) | 0.0748 µM (active) | < 0.0151 µM (active) | 0.0176 µM (active) | 0.439 µM (active) | 0.431 µM (active) | 1.02 µM (active) | > 100 µM (inactive) | 2.01 µM (inactive) | 0.0308 µM (active) | 0.274 µM (active)
CCOC(=O)P(=O)(O)c1ccc(N(C)Cc2ccccc2)cc1 | > 100 µM (inactive) | > 100 µM (inactive) | > 100 µM (inactive) | > 100 µM (inactive) | > 100 | > 100 µM (inactive) | > 100 µM (inactive) | > 100 µM (inactive) | > 100 µM (inactive) | > 100 µM (inactive) | > 100 µM (inactive) | > 100 µM (inactive) | > 100 µM (inactive) | > 100 µM (inactive) | > 100 µM (inactive) | > 100 µM (inactive) | > 100 µM (inactive) | > 100 µM (inactive) | > 100 µM (inactive) | > 100 µM (inactive)
CC(C)(C)NCc1cc(Nc2ccnc3cc(Cl)ccc23)cc(-c2ccc(Cl)cc2)c1O | 4.29 µM (inactive) | 2.43 µM (inactive) | 1.91 µM (inactive) | 2.03 µM (inactive) | 2.44 | 1.82 µM (inactive) | 1.87 µM (inactive) | 3.05 µM (inactive) | 3.43 µM (inactive) | 2.24 µM (inactive) | 4.17 µM (inactive) | 1.04 µM (active) | 2.99 µM (inactive) | 3.5 µM (inactive) | 1.72 µM (inactive) | 3.72 µM (inactive) | 1.97 µM (inactive) | 4.53 µM (inactive) | 1.68 µM (inactive) | 3.81 µM (inactive)
CSC1=C(C)S/C(=C\c2ccc(/C=C3\SC(C)=C(SC)S3)cc2)S1 | > 100 µM (inactive) | 89.3 µM (inactive) | > 100 µM (inactive) | > 100 µM (inactive) | > 100 | > 100 µM (inactive) | > 100 µM (inactive) | > 100 µM (inactive) | 83 µM (inactive) | > 100 µM (inactive) | > 100 µM (inactive) | > 100 µM (inactive) | > 100 µM (inactive) | > 100 µM (inactive) | > 100 µM (inactive) | > 100 µM (inactive) | > 100 µM (inactive) | > 100 µM (inactive) | > 100 µM (inactive) | > 100 µM (inactive)
O=C1c2c(F)c(F)c(F)c(F)c2SC2=NCCN12 | 8.41 µM (inactive) | 8.69 µM (inactive) | 2.85 µM (inactive) | 8.57 µM (inactive) | 2.81 | 2.24 µM (inactive) | 7.26 µM (inactive) | 10.4 µM (inactive) | 14.2 µM (inactive) | 1.84 µM (inactive) | 10.1 µM (inactive) | 2.1 µM (inactive) | 3.1 µM (inactive) | 12.6 µM (inactive) | 9.38 µM (inactive) | 19.3 µM (inactive) | 2.19 µM (inactive) | 17.3 µM (inactive) | 3.45 µM (inactive) | 11.5 µM (inactive)
